Results on 3 compounds are retold here after article PMC8596843, “Platinum Cyclooctadiene Complexes with Activity against Gram‐positive Bacteria” (Chemmedchem, 2021).

For data set [1], the system named is Acinetobacter baumannii ATCC 19606. The data set can be described thus: Antibacterial MIC assay. It is filed as cell-based. The settings on record: CO‐ADD screening. As to the method: (§1) All compounds submitted to CO‐ADD are initially screened against five bacterial strains (Staphylococcus aureus (MRSA), E. coli, Klebsiella pneumoniae, Pseudomonas aeruginosa, Acinetobacter baumannii) and two fungal strains (Candida albicans, Cryptococcus neoformans) at a single concentration (32 μg/mL or 20 μM) performed as a high‐throughput primary screening.[[11], [17a]] Any compounds that show significant growth inhibition against any of the tested strains at this step are then evaluated in a dose‐response assay against these same strains. […]
(§2) Smiles: C1C=CCCC(=CC1)C1=CCCC=CCC1.C[Pt]C.C[Pt]C […]
(§3) ATCC strains were sourced from the American Type Culture Collection and NRS strains from NARSA (Network on Antimicrobial Resistance in Staphylococcus aureus) via BEI Resources (www.beiresources.org), with clinical MSSA and MRSA isolates from Prof Graeme Nimmo, Queensland […]
(§4) Health Central Pathology. […]
(§5) Antibacterial minimum inhibitory concentration (MIC) assay
(§6) Compound Assay Plate Preparation: Compounds were dissolved in DMSO at 10mM (CO-ADD screening) or 4 mM (follow up screening) and were plated in a 2-fold dose response from 20 to 0.156 µM or 200 to 0.006 µM respectively, with a maximum of 0.5% or 1% DMSO, final in the assay […]
(§7) plated in a 2-fold dose response from 200 to 0.006 µM, with a maximum of 1 % DMSO, final in the assay concentration. (in-house screening)
(§8) For all the bacterial assays, each strain was cultured in Cation-adjusted Mueller Hinton broth (CAMHB; Bacto Laboratories 212322) at 37 °C overnight. A sample of each culture was then diluted 40-fold in fresh CAMHB and incubated at 37 °C for 1.5–3 h. The resultant mid-log phase cultures were diluted with CAMHB (CFU mL−1 measured by OD600), then added to each well of the compound-containing plates (384-well non-binding surface (NBS) plates; Corning CLS3640), giving a cell density of 5 × 10^5 CFU mL−1 and a total volume of 50 μL. Plates were covered and incubated at 37 °C for 18 h without shaking. Inhibition of bacterial growth was determined measuring absorbance at 600 nm (OD600), using media only as negative control and bacteria without inhibitors as positive control. MIC values were determined as the lowest concentration at which the growth was inhibited at ≥80%. Colistin sulfate (Sigma C4461) and vancomycin HCl (Sigma 861987) were used as internal controls on each plate for Gram-negative and Gram-positive bacteria, respectively. […]

The test system of data set [2] is Escherichia coli ATCC 25922. The data set can be described thus: Antibacterial MIC assay. It is filed as cell-based. The settings on record: CO‐ADD screening. As to the method:
as §1, §2, §3, §4, §5, §6, §7, §8

In data set [3] the test system is Pseudomonas aeruginosa ATCC 27853. The data set can be described thus: Antibacterial MIC assay. It is filed as cell-based. The settings on record: CO‐ADD screening. Here is the method: as §1, §2, §3, §4, §5, §6, §7, §8
Data set [4] concerns Candida albicans ATCC 90028. The data set can be described thus: Antifungal MIC (CO-ADD screening). The format is cell-based. Here is the method:
(§9) InChIKey: PHIWIZAHOBWKFJ-HPCBIOCFSA-N
(§10) Health Central Pathology. Candida albicans (ATCC 90028, NCCLS 11), Cryptococcus neoformans
as §5
(§11) concentration. (in-house screening)
(§12) Bacto Laboratories 212322) at 37 °C overnight.

The subject of data set [5] is Cryptococcus neoformans H99 ATCC 208821. The data set can be described thus: Antifungal MIC (CO-ADD screening). It is filed as cell-based. Here is the method:
as §9, §10, §5, §11, §12

For data set [6], the system named is HEK-293 ATCC CRL-1573 human embryonic kidney cells. The format is cell-based. A digest of the protocol:
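Compounds tested on HEK-293 cells at final 0.8–100 µM, with tamoxifen as internal positive control on each plate; haemolysis on human red blood cells incubated 1 h at 37 °C without shaking, reported as HC10 and HC50 from curve fits for top, bottom and slope, melittin as positive haemolytic control.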

Another data set deals with human red blood cells. The data set can be described thus: Haemolysis assay. It is filed as cell-based. The settings on record: for Haemolysis HC10: concentration inducing 10 % haemolysis; for Haemolysis HC50: concentration inducing 50 % haemolysis. A digest of the protocol:
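Human red blood cells were exposed to compounds at 0.8–100 µM for 1 h at 37 °C without shaking. HC10 and HC50 were derived from dose-response fits, with melittin serving as the positive haemolytic control.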

The test system of data set [7] is Bacillus subtilis ATCC 6051, type strain. The data set can be described thus: Antibacterial MIC assay, Gram-positive panel. It is filed as cell-based. The settings on record: n=2. A digest of the protocol: (§13)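 MIC is defined here as the lowest concentration inhibiting growth by ≥80% relative to untreated bacteria. The assay used OD600 in CAMHB after an 18 h, 37 °C incubation at 5 × 10^5 CFU/mL. Compound was dosed in 2-fold steps with DMSO capped at 0.5–1% final.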

In data set [8] the test system is Enterococcus faecalis ATCC 29212, control strain. The data set can be described thus: Antibacterial MIC assay, Gram-positive panel. The format is cell-based. To be noted: n=4. A digest of the protocol:
as §13

The test system of data set [9] is Enterococcus faecalis Clinical Isolate, VRE (VanB). The data set can be described thus: Antibacterial MIC assay, Gram-positive panel. It is filed as cell-based. The settings on record: n=4. A digest of the protocol: as §13
Data set [10] relates to Enterococcus faecium ATCC 35667, type strain. The data set can be described thus: Antibacterial MIC assay, Gram-positive panel. The settings on record: n=4. It is filed as cell-based. A digest of the protocol: as §13
The subject of data set [11] is Enterococcus faecium ATCC 51559, MDR, VRE (VanA). The data set can be described thus: Antibacterial MIC assay, Gram-positive panel. It is filed as cell-based. The settings on record: n=2. A digest of the protocol:
as §13

Data set [12] relates to Enterococcus faecium Clinical Isolate, VRE (VanA). The data set can be described thus: Antibacterial MIC assay, Gram-positive panel. It is filed as cell-based. The settings on record: n=4. A digest of the protocol:
as §13

Data set [13] relates to Staphylococcus epidermidis ATCC 14990, type strain. The data set can be described thus: Antibacterial MIC assay, Gram-positive panel. It is filed as cell-based. The settings on record: n=4. A digest of the protocol:
as §13

Data set [14] relates to Staphylococcus epidermidis NRS 60, VISE. The data set can be described thus: Antibacterial MIC assay, Gram-positive panel. It is filed as cell-based. To be noted: n=4. A digest of the protocol: as §13
The test system of another data set is S. aureus NRS 17 GISA. The data set can be described thus: MIC in the presence of human serum (serum reversal). It is filed as cell-based, Staphylococcus aureus. The settings on record: 50% serum. A digest of the protocol: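 MIC determination repeated in the presence of 10% or 50% human serum. Bacteria grown overnight at 37 °C, diluted from mid-log cultures, and tested at a final concentration range of 0.8–100 µM.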

Molecules are shown by their SMILES. Marks after values point to notes of the source that are not given here. A value given as a limit tells only on which side of the number the result lay.

As usually defined, the CC50 is the concentration that lowers cell viability or growth by half. The low end stands for harm at low concentration, the high end for better tolerance by the cells. In general, MIC refers to the lowest concentration found to suppress growth. Low readings indicate inhibition by little substance, high ones a need for much substance. For the compound `C1=C\CC/C=C\CC/1.[Cl-].[Cl-].[Pt+2]` [Pt1, Pt(COD)Cl2], the “MIC Ab” value in [1] was above 20 µM. In addition, in data set [2], the “MIC Ec” value is above 20 µM. The “MIC Pa” value in data set [3] was above 20 µM. In addition, the “MIC Ca” value in data set [4] was in the range of 10 to 20 µM. Also, the “MIC Cn” value in [5] lay in the range of 1.25 to 5 µM. This compound also showed a cytotoxic concentration (CC50) in data set [6] above 100 µM. In the data set with human red blood cells, the “Haemolysis HC10” value was above 100 µM. Also, in the data set on human red blood cells, the “Haemolysis HC50” value was above 100 µM. Besides, the MIC in data set [7] (Table 2 panel) is 6.25^[b] μg/mL; in [8] (Table 2 panel), 50–100^[a] μg/mL; in data set [9] (Table 2 panel), 25^[a] μg/mL; in [10] (Table 2 panel), 25^[a] μg/mL; in data set [11] (Table 2 panel) it was 12.5^[b] μg/mL; in data set [12] (Table 2 panel) it was 25–50^[a] μg/mL. In addition, the minimum inhibitory concentration (MIC) in data set [13] (Table 2 panel) was 0.781^[a] μg/mL; in data set [14] (Table 2 panel), 3.125^[a] μg/mL. Further, the MIC in the presence of human serum with S. aureus NRS 17 GISA was above 200 µM.

For `C1=CCC/C=C\CC1.[I][Pt][I]` [Pt2, Pt(COD)I2], the “MIC Ab” value in data set [1] is above 20 µM. Also, the “MIC Ec” value in [2] was above 20 µM. Moreover, the “MIC Pa” value in [3] was above 20 µM. Moreover, the “MIC Ca” value in data set [4] turned out to be 10 µM. Also, in data set [5], the “MIC Cn” value turned out to be 2.5 µM. Besides, the CC50 in [6] is above 100 µM. Also, the “Haemolysis HC10” value in the data set on human red blood cells was above 100 µM. Moreover, in the data set with human red blood cells, the “Haemolysis HC50” value was above 100 µM. Also, the MIC in [7] (Table 2 panel) is 3.125–6.25^[b] μg/mL; in data set [8] (Table 2 panel), 25–50^[a] μg/mL; in data set [9] (Table 2 panel), 12.5–25^[a] μg/mL; in data set [10] (Table 2 panel) it was 25^[a] μg/mL; in data set [11] (Table 2 panel), 12.5–25^[b] μg/mL; in data set [12] (Table 2 panel) it was 25^[a] μg/mL. For the same compound, the results for the MIC in data set [13] (Table 2 panel) and in [14] (Table 2 panel) were 1.56^[a] μg/mL and 6.25^[a] μg/mL, respectively. Also, the MIC in the presence of human serum in the data set with S. aureus NRS 17 GISA is above 200 µM.

For `CCC1=CCCC=CCC1.[CH3][Pt][Cl]` [Pt7], in data set [1], the “MIC Ab” value was above 20 µM. Also, the “MIC Ec” value in data set [2] was above 20 µM. Besides, the “MIC Pa” value in data set [3] was above 20 µM. The “MIC Ca” value in data set [4] was found to be 10 µM. Besides, in data set [5], the “MIC Cn” value was found to be 20 µM. Besides, in [6], the 50% cytotoxic concentration (CC50) was above 100 µM. Also, the “Haemolysis HC10” value in the data set on human red blood cells is 10.27 µM. The “Haemolysis HC50” value in the data set on human red blood cells came to 52.12 µM. For the same compound, the MIC in [7] (Table S1 panel) is above 200 µM; in data set [8] (Table S1 panel), above 200 µM; in [9] (Table S1 panel), above 200 µM; in data set [10] (Table S1 panel) it was above 200 µM; in data set [11] (Table S1 panel), 200 µM; in [12] (Table S1 panel), above 200 µM. Moreover, the minimum inhibitory concentration (MIC) in data set [13] (Table S1 panel) is 200 µM; in data set [14] (Table S1 panel), above 200 µM. For the same compound, the MIC in the presence of human serum in the data set with S. aureus NRS 17 GISA was above 200 µM.
